{"source": "ChEMBL document CHEMBL4417621", "about": "“Methods to identify tas2r modulators” (2013)", "assay_type_in_all_cases": "functional, cell-based", "key": {"[1]": {"target": "T1, Taste receptor type 2 member 31 (Homo sapiens, UniProt P59538)", "T1 sequence (P59538 whole entry)": "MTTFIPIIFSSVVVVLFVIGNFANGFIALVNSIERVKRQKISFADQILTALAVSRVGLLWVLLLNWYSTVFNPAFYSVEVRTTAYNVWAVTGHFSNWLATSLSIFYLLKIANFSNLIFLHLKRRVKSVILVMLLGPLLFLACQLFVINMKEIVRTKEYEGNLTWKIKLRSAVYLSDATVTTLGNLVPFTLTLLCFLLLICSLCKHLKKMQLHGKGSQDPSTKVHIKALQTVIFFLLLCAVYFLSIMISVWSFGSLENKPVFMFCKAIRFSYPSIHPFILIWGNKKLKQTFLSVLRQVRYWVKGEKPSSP", "assay": "Agonist activity at full-length human TAS2R44 expressed in HEK293T/Galpha16-gustducin 44 cells assessed as effect on calcium flux by measuring deltaF/F0 ratio by Fluo-4 dye based FLIPR assay"}, "[2]": {"target": "T2, Taste receptor type 2 member 31 (Homo sapiens) (UniProt P59538)", "T2 sequence (whole entry)": "T1 sequence (P59538 whole entry)", "assay": "Activation of full-length human TAS2R44 expressed in HEK293T/Galpha16-gustducin 44 cells assessed as effect on calcium flux by measuring deltaF/F0 ratio at 12.5 mM by Fluo-4 dye based FLIPR assay (reference value: […] +/ - 0.014)"}, "[3]": {"target": "T2, Taste receptor type 2 member 31 (Homo sapiens)", "assay": "Activation of full-length human TAS2R44 expressed in HEK293T/Galpha16-gustducin 44 cells assessed as effect on calcium flux by measuring deltaF/F0 ratio at 6.25 mM by Fluo-4 dye based FLIPR assay (reference value: 0.017 +/ - 0.009)"}, "[4]": {"target": "T2, Taste receptor type 2 member 31 (Homo sapiens)", "assay": "Activation of full-length human TAS2R44 expressed in HEK293T/Galpha16-gustducin 44 cells assessed as effect on calcium flux by measuring deltaF/F0 ratio at 1.5625 mM by Fluo-4 dye based FLIPR assay (reference value: 0.017 +/ - 0.008)"}, "[5]": {"target": "T2, Taste receptor type 2 member 31 (Homo sapiens)", "assay": "Activation of full-length human TAS2R44 expressed in HEK293T/Galpha16-gustducin 44 cells assessed as effect on calcium flux by measuring deltaF/F0 ratio at 0.7813 mM by Fluo-4 dye based FLIPR assay (reference value: […] +/ - 0.002)"}, "[6]": {"target": "T3, Taste receptor type 2 member 1 (Homo sapiens) (UniProt Q9NYW7)", "T3 sequence (whole entry)": "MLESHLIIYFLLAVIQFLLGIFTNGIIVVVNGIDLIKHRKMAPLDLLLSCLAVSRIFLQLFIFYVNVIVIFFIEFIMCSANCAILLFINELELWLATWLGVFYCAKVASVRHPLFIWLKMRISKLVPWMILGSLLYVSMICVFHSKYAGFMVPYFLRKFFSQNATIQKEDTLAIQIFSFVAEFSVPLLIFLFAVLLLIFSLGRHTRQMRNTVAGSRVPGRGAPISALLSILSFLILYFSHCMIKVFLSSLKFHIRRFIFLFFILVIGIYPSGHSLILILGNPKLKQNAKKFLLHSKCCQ", "assay": "Activation of full-length human TAS2R1 expressed in HEK293T/Galpha16-gustducin 44 cells assessed as effect on calcium flux by measuring deltaF/F0 ratio at 12.5 mM by Fluo-4 dye based FLIPR assay"}, "[7]": {"target": "T3, Taste receptor type 2 member 1 (Homo sapiens)", "assay": "Activation of full-length human TAS2R1 expressed in HEK293T/Galpha16-gustducin 44 cells assessed as effect on calcium flux by measuring deltaF/F0 ratio at 1.5625 mM by Fluo-4 dye based FLIPR assay"}, "[8]": {"target": "T4, Taste receptor type 2 member 10 (Homo sapiens) (UniProt Q9NYW0)", "T4 sequence (whole entry)": "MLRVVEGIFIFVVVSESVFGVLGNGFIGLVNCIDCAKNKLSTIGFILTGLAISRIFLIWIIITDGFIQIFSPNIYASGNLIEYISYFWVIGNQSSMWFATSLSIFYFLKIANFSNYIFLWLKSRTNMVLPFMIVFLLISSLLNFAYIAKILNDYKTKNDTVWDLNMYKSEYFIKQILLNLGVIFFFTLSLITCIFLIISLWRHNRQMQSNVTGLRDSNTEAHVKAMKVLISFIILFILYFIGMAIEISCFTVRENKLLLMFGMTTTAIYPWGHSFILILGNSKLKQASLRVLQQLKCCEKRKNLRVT", "assay": "Activation of full-length human TAS2R10 expressed in HEK293T/Galpha16-gustducin 44 cells assessed as effect on calcium flux by measuring deltaF/F0 ratio at 100 mM by Fluo-4 dye based FLIPR assay"}, "[9]": {"target": "T4, Taste receptor type 2 member 10 (Homo sapiens)", "assay": "Activation of full-length human TAS2R10 expressed in HEK293T/Galpha16-gustducin 44 cells assessed as effect on calcium flux by measuring deltaF/F0 ratio at 12.5 mM by Fluo-4 dye based FLIPR assay"}, "[10]": {"target": "T4, Taste receptor type 2 member 10 (Homo sapiens)", "assay": "Activation of full-length human TAS2R10 expressed in HEK293T/Galpha16-gustducin 44 cells assessed as effect on calcium flux by measuring deltaF/F0 ratio at 1.5625 mM by Fluo-4 dye based FLIPR assay"}, "[11]": {"target": "T5, Taste receptor type 2 member 46 (Homo sapiens) (UniProt P59540)", "T5 sequence (whole entry)": "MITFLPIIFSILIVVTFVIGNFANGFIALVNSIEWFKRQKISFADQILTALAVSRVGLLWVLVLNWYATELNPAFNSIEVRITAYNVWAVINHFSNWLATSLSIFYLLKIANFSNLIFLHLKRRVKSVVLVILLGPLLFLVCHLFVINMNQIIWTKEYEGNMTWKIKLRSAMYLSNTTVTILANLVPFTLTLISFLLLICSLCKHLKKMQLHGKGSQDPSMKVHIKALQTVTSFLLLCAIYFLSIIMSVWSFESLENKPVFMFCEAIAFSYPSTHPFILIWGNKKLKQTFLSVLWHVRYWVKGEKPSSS", "assay": "Activation of full-length human TAS2R46 expressed in HEK293T/Galpha16-gustducin 44 cells assessed as effect on calcium flux by measuring deltaF/F0 ratio at 100 mM by Fluo-4 dye based FLIPR assay"}, "[12]": {"target": "T5, Taste receptor type 2 member 46 (Homo sapiens)", "assay": "Activation of full-length human TAS2R46 expressed in HEK293T/Galpha16-gustducin 44 cells assessed as effect on calcium flux by measuring deltaF/F0 ratio at 12.5 mM by Fluo-4 dye based FLIPR assay"}, "[13]": {"target": "T5, Taste receptor type 2 member 46 (Homo sapiens)", "assay": "Activation of full-length human TAS2R46 expressed in HEK293T/Galpha16-gustducin 44 cells assessed as effect on calcium flux by measuring deltaF/F0 ratio at 6.25 mM by Fluo-4 dye based FLIPR assay"}, "[14]": {"target": "T5, Taste receptor type 2 member 46 (Homo sapiens)", "assay": "Activation of full-length human TAS2R46 expressed in HEK293T/Galpha16-gustducin 44 cells assessed as effect on calcium flux by measuring deltaF/F0 ratio at 1.5625 mM by Fluo-4 dye based FLIPR assay"}, "[15]": {"target": "T5, Taste receptor type 2 member 46 (Homo sapiens)", "assay": "Activation of full-length human TAS2R46 expressed in HEK293T/Galpha16-gustducin 44 cells assessed as effect on calcium flux by measuring deltaF/F0 ratio at 0.7813 mM by Fluo-4 dye based FLIPR assay"}, "[16]": {"target": "T5, Taste receptor type 2 member 46 (Homo sapiens)", "assay": "Activation of full-length human TAS2R46 expressed in HEK293T/Galpha16-gustducin 44 cells assessed as effect on calcium flux by measuring deltaF/F0 ratio at 0.3906 mM by Fluo-4 dye based FLIPR assay"}}}
{"smiles": "OC[C@H]1O[C@H](O[C@]2(CCl)O[C@H](CCl)[C@@H](O)[C@@H]2O)[C@H](O)[C@@H](O)[C@H]1Cl", "note": "[SUCRALOSE]", "values": [{"measurement": "EC50", "setting": "[1]", "value": 16.7, "unit": "mM"}, {"measurement": "Ratio", "setting": "[2]", "value": 0.109}, {"measurement": "Ratio", "setting": "[3]", "value": 0.059}, {"measurement": "Ratio", "setting": "[4]", "value": 0.026}, {"measurement": "Ratio", "setting": "[5]", "value": 0.025}, {"measurement": "Ratio", "setting": "[6]", "value": 0.072}, {"measurement": "Ratio", "setting": "[7]", "value": 0.047}, {"measurement": "Ratio", "setting": "[8]", "value": 0.437}, {"measurement": "Ratio", "setting": "[9]", "value": 0.059}, {"measurement": "Ratio", "setting": "[10]", "value": 0.047}, {"measurement": "Ratio", "setting": "[11]", "value": 0.258}, {"measurement": "Ratio", "setting": "[12]", "value": 0.075}, {"measurement": "Ratio", "setting": "[13]", "value": 0.057}, {"measurement": "Ratio", "setting": "[14]", "value": 0.035}, {"measurement": "Ratio", "setting": "[15]", "value": 0.038}, {"measurement": "Ratio", "setting": "[16]", "value": 0.041}]}
